Experimental data reported in patent US8937050B2, “Methods and compositions for treatment of autism” (The Johns Hopkins University, priority 2011, dated 2015).
Entries after “also recorded” stand apart in the source; their conditions may differ.

Experiments:
XALD fibroblasts = assay: Fatty acid β-oxidation of 1-14C-labeled fatty acids; assay type: cell-based, human; details: XALD fibroblasts, five days; FIG. 1B
Procedure: Fatty acid β-oxidation activity in XALD fibroblasts was determined by measuring their capacity to degrade 1-^14C-labeled fatty acids to water-soluble products as described in McGuiness et al., 2003.
4PBA-induced peroxisomal VLCFA β-oxidation (degradation) is dependent on mitochondrial long chain fatty acid (LCFA) β-oxidation (McGuinness et al., 2003). […] Antimycin A (AA) is a cytochrome c reductase inhibitor that inhibits the mitochondrial electron transport chain, mitochondrial biogenesis, and thus, cellular respiration (Ranganathan et al., 2009). […] XALD fibroblasts were treated with 4PBA in the presence or absence of antimycin A (AA), a cytochrome c reductase inhibitor, for five days and β-oxidation levels of LCFA (C16:0) and VLCFA (C24:0) levels were measured.

ABCD2 = details: Li et al., 2002; cited from earlier work
[1] = human research studies; cited from earlier work
Alzheimer's disease = details: Park et al., 2009, Ricobaraza et al.; cited from earlier work
FL-SMN mRNA = assay: RT-PCR of FL-SMN and total SMN mRNA in spinal muscular atrophy fibroblasts; assay type: cell-based, human
Procedure: Following the manufacturer's protocols, DNase I-treated cDNA was synthesized using Superscript III or Thermoscript reverse transcriptase (Invitrogen). PCR reactions were performed in duplicate on the Roche Lightcycler 3.5 (Basel, Switzerland) or the Bio-Rad iCycler (Hercules, Calif.) using Quantitech SYBR green PCR mix (Qiagen, Valencia, Calif.). GeNorm software calculated a normalization factor for each sample using the relative amounts of at least two of the following reference genes, β2-microglobulin, […], actin, and/or eukaryotic elongation factor 1A (Vandesompele et al., 2002). Primers for the various experiments described herein are listed below.
Type I and type III spinal muscular atrophy (SMA I or SMA III) fibroblasts were treated with SFN for the indicated times. The relative fold increase in the ratio of FL-SMN/total SMN transcripts compared with the untreated cell line (normalized to 1) is plotted. Cell lines from left to right are GM09677, GM00232 and 2906. N≧2 independent experiments.
Spinal muscular atrophy fibroblasts were treated with 1.5 mM SFN alone for 51 hr. (SMA I, GM09677) or treated with 0.5 mM SFN for 8 hr. (SMA III, 2906) with or without […] SP600125 (JNK inhibitor), 2.5 mM 3-methyladenine (autophagy inhibitor, APG), […] antimycin A (mitochondrial inhibitor, MITO) or […] sirtinol (SIRT1 inhibitor). The fold increases in FL-SMN expression compared with either GAPDH or total SMN expression and the fold increase in total SMN expression compared with GAPDH expression after SFN treatment is plotted. Untreated values were normalized to 1 and are indicated by the horizontal line. (n=1 per cell line, performed in duplicate)
To determine which stress pathways are necessary for the increase in FL-SMN production, spinal muscular atrophy fibroblasts were co-treated with SFN and either SP600125, an inhibitor of the JNK pathway (Bennett et al., 2001), 3-methyladenine, an inhibitor of the autophagy pathway (Seglen et al., 1982), antimycin A, a mitochondrial inhibitor (Ranganathan et al., 2009), or sirtinol, an inhibitor of SIRT1 activity (Grozinger et al., 2001). […] SIRT1, an NAD+-dependent deacetylase, is known to regulate cellular stress responses, cellular metabolism and cellular survival (Salminen et al., 2009). Specifically, SIRT1 inhibition reduces the induction of HSR genes (Westerheide et al., 2009); SIRT1 activity enhances SOD2 expression (Anastasiou et al., 2006); SIRT1 negatively regulates the mammalian target of rapamycin triggering autophagy (Haigis et al., 2010); and SIRT1 activates mitochondrial biogenesis via the stress-responsive transcription factor PGC1a (Yu et al., 2009). The yeast ortholog Sir2 is necessary for the induction of mitochondrial biogenesis by 4PBA or HU in Saccharomyces cerevisiae (Cha 2010). […] However, SIRT1 can be activated by various post-translational changes. Therefore, the potential involvement of SIRT1 in the therapeutic effects of these drugs by inhibition studies was evaluated.

HSF1 = details: luciferase reporter system; cited from earlier work
K562 cells = assay: HbF-producing cell production (DAF staining); assay type: cell-based, human; details: K562 cells, 1.2 mM SB or 100 μM HU; FIG. 1D
Procedure: Fibroblasts (70-95% confluent) were treated with 5 mM 4PBA (1 mM for JNK inhibition studies), 600 μM HU, 200 nM TSA, or 5 μM SFN unless otherwise specified.
K562 cells were suspended in 1.1 mL media and 240 μL of DAF [working solution 50 μL 2,7diaminofluorene (DAF) stock (50 μg DAF in 5 mL 90% glacial acetic acid), 50 μL 30% hydrogen peroxide, and 2.5 ml 200 mM Tris-HCl, pH 7.0]. DAF stained hemoglobinized cells were scored using a hemocytometer.
K562 cells were treated with SB and HU for four to ten days. […] (n≧3 unless otherwise noted).
To determine whether the induction of mitochondrial biogenesis by SB or HU treatment was necessary for the induction of HbF-producing cell production, K562 cells were treated with SB or HU in the presence or absence of AA. […] After two to four days of drug treatment with or without AA, mitochondrial mass was measured using Mitotracker, a mitochondrial stain. Fold change (drug treated/control) is shown. […] After four days of drug treatment with or without AA, cells were stained with DAF. The relative number of cells producing HbF (DAF stained cells) were plotted. […] After eight to ten days of drug treatment, peroxisome proliferation was measured using an antibody against the peroxisomal membrane protein, PEX14 and a FITC-labeled secondary antibody. Fold change (drug treated/control) is shown. In FIGS. 1C, 1D, and 1E, the * represents a statistically significant increase in a measurement between drug treated and control samples or a statistically significant decrease in a measurement between drug treated and drug treated samples in the presence of AA (p≦0.05) (Bars=SEM). This finding indicates dependence of the beneficial effect (i.e., elevated HbF levels) on induced mitochondrial biogenesis. Thus, the therapeutic effects observed in SCD may involve the pharmacological induction of mitochondrial biogenesis by SB or HU.
K562 cells were treated for four days with HU in the presence or absence of SP600125 or PBS as a control (CON). […]

4-phenylbutyrate [4PBA]
LCFA (C16:0) β-oxidation (XALD fibroblasts): induced | VLCFA (C24:0) β-oxidation (XALD fibroblasts): induced | expression of ABCD2 (ABCD2): increased

C[S@@+]([O-])CCCCN=C=S [SFN, 1-isothiocyanato-4R-(methylsulfinyl)butane]
adverse effects [1]: not shown any significant adverse effects | Therapeutic Effect (Alzheimer's disease): reduce β-amyloid toxicity; also recorded: prevent neuronal cell death | relative expression of FL-SMN transcripts normalized to GAPDH or total SMN transcript levels (FL-SMN mRNA; FIG. 8B): increased | total SMN transcript levels normalized to GAPDH transcript levels (FL-SMN mRNA; FIG. 8B): remained unchanged | FL-SMN mRNA expression compared with total SMN transcription (FL-SMN mRNA; SMA type I lines GM09677, GM00232 and SMA type III line 96-2906, FIG. 8A): significantly increased | HSF1 mediated transcription of the reporter (HSF1): activated

NC(=O)NO [HU, hydroxyurea]
number of HbF-producing cells (K562 cells): significantly increased
